Assay results: patent publication US20040152713A1, “Methods for treating joint pain or improving sleep using an estrogen agonist/antagonist” (Pfizer Inc., priority 2003, published 2004)

Key:
postmenopausal women [1] = assay: Randomized, double blind, placebo controlled study of oral lasofoxifene on joint pain (visual analog scale pain score); assay type: in vivo, human; conditions: 3 months assessment, self-reported VAS 100 mm scale (0 mm=no pain, 100 mm=worst pain)
Procedure: (§1) The Effects of Oral Administration of (−)-cis-6-phenyl-5-[4-(2-pyrrolidin-1-yl-ethoxy)-phenyl]-5,6,7,8-tetrahydro-naphthalene-2-ol, D-tartrate salt (Iasofoxifene) on Joint Pain: A Randomized, Double Blind, Placebo Controlled Study Subjects: A double blind, randomized, placebo controlled trial of approximately three hundred and seventy five women between the ages of 50 and 74 years of age inclusive, and 1-20 years postmenopausal was carried out. The subjects selected for the study were ambulatory females between the ages of 50 and 74 years of age (inclusive) who gave written informed consent for participation in the study. […] The subject's Screening/Baseline mean L1-L4 lumbar bone mineral density (BMD) of the spine must be less than +2.0 standard deviations and greater than −2.5 standard deviations of age-and sex-matched bone mineral density (Z-score) as determined by standards of the manufacturer of the Dual X-ray Absorptiometer (DXA) used in the determination of that BMD. […] The subjects' endometrial thickness were typically <5 mm as determined by transvaginal ultrasound (TVU) and subjects outside of this criteria were asked to undergo additional baseline evaluation following initial randomization. […]

postmenopausal women [2] = assay: Randomized, double blind, placebo controlled study of oral lasofoxifene on sleep (Sleep Problems subscale of Women's Health Questionnaire); assay type: in vivo, human; conditions: 3 months assessment
Procedure: The Effects of Oral Administration of (−)-cis-6-phenyl-5-[4-(2-pyrrolidin-1-yl-ethoxy)-phenyl]-5,6,7,8-tetrahydro-naphthalene-2-ol, D-tartrate salt (lasofoxifene) on Sleep: A Randomized, Double Blind, Placebo Controlled Study
as §1, with “Subjects:” for “The Effects of Oral Administration of (−)-cis-6-phenyl-5-[4-(2-pyrrolidin-1-yl-ethoxy)-phenyl]-5,6,7,8-tetrahydro-naphthalene-2-ol, D-tartrate salt (Iasofoxifene) on Joint Pain: A Randomized, Double Blind, Placebo Controlled Study Subjects:”
Assessment Method: Patient self-report recorded on Sleep Problems subscale of standardized questionnaire, Women's Health Questionnaire (WHQ; Hunter, M. 1992. Psychology and Health, 7: 45-54).

Structure (SMILES): O=C(O)C(O)C(O)C(=O)O.Oc1ccc2c(c1)CC[C@H](c1ccccc1)[C@@H]2c1ccc(OCCN2CCCC2)cc1 [Lasofoxifene, (−)-cis-6-phenyl-5-[4-(2-pyrrolidin-1-yl-ethoxy)-phenyl]-5,6,7,8-tetrahydro-naphthalene-2-ol, D-tartrate salt]
- Joint Pain Changes Resulting From Treatment (Mean Change from Baseline) (postmenopausal women [1]; lasofoxifene 0.25 mg/day oral): −8.16
- Joint Pain Changes Resulting From Treatment (Mean Change from Baseline) (postmenopausal women [1]; lasofoxifene 1.0 mg/day oral): 4.52
- Improvement in sleep (less sleep disturbance) vs. placebo, in words (postmenopausal women [2]; lasofoxifene 0.4 mg treatment group vs. placebo): statistically significant improvement in sleep
- Mean Change from Baseline (WHQ Sleep Problems subscale) (postmenopausal women [2]; lasofoxifene 0.4 mg/day oral, patient self-report): −0.09
